“And” between values parts separate entries of the source, which are not always exact repeats. Identical values can stand only once. One block for each compound: values may come before it.
Experiment: solvent given as SMILES

- emission maximum (in CCCCCC): 403 nm
- emission maximum (in CCO): 435 nm
- emission maximum (in CO): 443 nm
- emission maximum (in ClCCl): 417 nm
- emission maximum (in c1ccccc1): 410 nm
Structure (SMILES): C(=C\c1cnccn1)/c1ccc2nccnc2c1

- emission maximum (in C1CCCCC1): 633 nm
- emission maximum (in CCOC(C)=O): 690 nm
Structure (SMILES): C#CCNC1=C2C=C(c3cc4n(c3)[B-](F)(F)[N+]3=CC=CC3=C4c3c(C)cc(C)cc3C)C(C)=[N+]2[B-](F)(F)n2c(C)ccc21

- emission maximum (in ClCCl): 473 nm
Structure (SMILES): COC(=O)c1[nH]c(-c2ccccc2)c2nnc3c4ccccc4oc3c12

- emission maximum (in ClCCl): 556 nm
Structure (SMILES): CN(C)c1ccc(N2c3sc4ccccc4c3Sc3c2sc2ccccc32)cc1

Structure (SMILES): CC1=CC(C)=[N+]2C1=C(c1ccc(N3CCOCC3)cc1)c1c(C)cc(C)n1[B-]2(F)F
- emission maximum (in C1CCOC1): 514 nm
- emission maximum (in CC#N): 511 nm
- emission maximum (in CC(=O)C(C)(C)C): 520 nm
- emission maximum (in CC(C)=O): 516 nm
- emission maximum (in CCCCCC): 511 nm
- emission maximum (in CCOC(C)=O): 517 nm
- emission maximum (in CO): 514 nm

- emission maximum (in ClCCl): 508 nm
Structure (SMILES): c1ccc(N2N=C(c3ccc4ccc5cccc6ccc3c4c56)CC2c2ccc3ccc4cccc5ccc2c3c45)cc1 (stereo not given)

- emission maximum (in C1CCOC1): 713 nm
- emission maximum (in CS(C)=O): 731 nm
- emission maximum (in ClCCl): 710 nm
Structure (SMILES): CCOC(=O)c1[nH]c(C)c(/C=C/C2=[N+]3C(=C(c4cc(OC)cc(OC)c4)c4c(C)c(I)c(/C=C/c5c(C)[nH]c(C(=O)OCC)c5C)n4[B-]3(F)F)C(C)=C2I)c1C

- emission maximum (in C1CCOC1): 498 nm
Structure (SMILES): C(=C\c1ccccc1/C=C/c1c2ccccc2cc2ccccc12)/c1ccncc1

Structure (SMILES): N#C/C(=C/Nc1ccc(C#N)cc1)c1nc(-c2ccccc2)cs1
- emission maximum (in CCO): 434 nm
- emission maximum (in CN(C)C=O): 436 nm
- emission maximum (in Cc1ccccc1): 438 nm
- emission maximum (in ClCCl): 437 nm

- emission maximum (in ClCCl): 369 nm
Structure (SMILES): CCCCCc1c(C)c2c3ccccc3[nH]c2c2ccccc12

- emission maximum (in CO): 584 nm
Structure (SMILES): C(=C\c1c[nH]c2ccc(Oc3ccccc3)cc12)/C1=[NH+]c2cccc3cccc1c23

- emission maximum (in CO): 402.3 nm
Structure (SMILES): CCC1(CC)c2cc(-c3ccc(C(C)(C)C)cc3)ccc2-c2ccc(-c3ccc4c(c3)C(CC)(CC)c3cc(-c5ccc6c(c5)C(CC)(CC)c5cc(-c7ccc(C(C)(C)C)cc7)ccc5-6)ccc3-4)cc21

- emission maximum (in ClCCl): 780 nm
Structure (SMILES): CCc1ccc(C2=[N+]3C(=Cc4c5ccc(OC)cc5c(-c5ccc(CC)s5)n4[B-]3(F)F)c3ccc(OC)cc32)s1

Structure (SMILES): c1ccc2c(c1)CC1(C2)c2cc(N3c4ccccc4Sc4ccccc43)ccc2-c2ccc(N3c4ccccc4Sc4ccccc43)cc21
- emission maximum (in Cc1ccccc1): 495 nm

- emission maximum (in ClC(Cl)Cl): 641 nm
Structure (SMILES): CCCCCCCCn1c(=O)c2cc3c(C#Cc4ccc(N(c5ccccc5)c5ccccc5)cc4)c4cc5c(=O)n(CCCCCCCC)c(=O)c5cc4c(C#Cc4ccc(N(c5ccccc5)c5ccccc5)cc4)c3cc2c1=O

- emission maximum (in CCO): 658 nm
- emission maximum (in ClC(Cl)Cl): 647 nm
- emission maximum (in O): 666 nm
Structure (SMILES): CCOC(=O)c1ccccc1-c1c2ccc(=[N+](CC)CC)cc-2oc2c1c(=O)oc1cc3c(cc12)CCCN3C

- emission maximum (in ClCCl): 606 nm
Structure (SMILES): CCOCCOCCOC(=O)/C=C/C1=CC2=C(c3c(C)cc(C)cc3C)c3cc(/C=C/C(=O)OCCOCCOCC)cn3[B-](F)(F)[N+]2=C1

- emission maximum (in CC#N): 345 nm
- emission maximum (in CCOC(C)=O): 343 nm
- emission maximum (in CO): 351 nm
- emission maximum (in O): 351 nm
Structure (SMILES): O=c1[nH]c(=O)c2scc([C@H]3C[C@H](O)[C@@H](CO)O3)c2[nH]1

Structure (SMILES): CCC1=C(C)C2=C(C)c3c(I)c(I)cn3[B-](F)(F)[N+]2=C1C
- emission maximum (in C1CCCCC1): 538.5 nm
- emission maximum (in CC(C)=O): 533 nm
- emission maximum (in CCO): 534 nm
- emission maximum (in CCOC(C)=O): 533 nm
- emission maximum (in CO): 533.5 nm
- emission maximum (in OCC(F)(F)F): 530.5 nm

- emission maximum (in CCCCCCC): 603 nm
Structure (SMILES): c1ccc2c3c(ccc2c1)-c1c2ccccc2cc2cccc-3c12

- emission maximum (in ClCCl): 754 nm
Structure (SMILES): COc1ccc2cc(C3=[N+]4C(=Nc5c(-c6ccc7ccccc7c6)cc(-c6ccc7cc(OC)ccc7c6)n5[B-]4(F)F)C(c4ccc5ccccc5c4)=C3)ccc2c1

- emission maximum (in ClC(Cl)Cl): 651 nm
Structure (SMILES): CCCCCCCCN1C(=O)c2ccc3c4c(-c5ccc(-n6c7ccccc7c7ccccc76)cc5)cc5c6c(cc(-c7ccc(-n8c9ccccc9c9ccccc98)cc7)c(c7ccc(c2c37)C1=O)c64)C(=O)N(CCCCCCCC)C5=O

- emission maximum (in CCO): 446 nm
Structure (SMILES): CN(C)c1cc2oc3cc(N(C)C)c(F)cc3c(=O)c2cc1F

Structure (SMILES): CN(C)CCN(Cc1c2ccccc2c(CN(CCN(C)C)c2ccc([N+](=O)[O-])cc2[N+](=O)[O-])c2ccccc12)c1ccc([N+](=O)[O-])cc1[N+](=O)[O-]
- emission maximum (in C1CCCCC1): 416 nm
- emission maximum (in C1CCOC1): 419 nm
- emission maximum (in CC#N): 389 nm
- emission maximum (in CC(C)=O): 387 nm
- emission maximum (in CCO): 388 nm
- emission maximum (in CN(C)C=O): 424 nm
- emission maximum (in CO): 389 nm
- emission maximum (in ClC(Cl)Cl): 417 nm

- emission maximum (in CS(C)=O): 443 nm
Structure (SMILES): O=C1CCCC2=C1C(c1cccc(Cl)c1)c1c(c3ccccc3oc1=O)N2 (stereo not given)

- emission maximum (in ClC(Cl)Cl): 496 nm
Structure (SMILES): COc1ccc2c(c1)c(C#N)cc1c(OC)c(OC)c3cc(C#N)c4cc(OC)ccc4c3c12

Structure (SMILES): c1ccc(-c2nc(-c3ccccc3)nc(-c3ccc(-n4c5ccccc5c5c4c4ccccc4n5-c4ccccc4)cc3)n2)cc1
- emission maximum (in Cc1ccccc1): 526 nm

- emission maximum (in CC#N): 383 nm
- emission maximum (in CO): 380 nm
Structure (SMILES): C1=Cc2ccccc2Cc2ccccc21

- emission maximum (in ClC(Cl)Cl): 618 nm
Structure (SMILES): CCCN1c2ccccc2Sc2cc(/C=C\c3cc(=O)oc4ccccc34)ccc21

- emission maximum (in ClCCl): 650 nm
Structure (SMILES): CC1=C(C)C(c2c(C)c(C)c3n2[B-](F)(F)[N+]2=C(C)C(C)=C(C)C2=C3)=[N+]2C1=Cc1c(C)c(C)c(C)n1[B-]2(F)F

- emission maximum (in O): 555 nm
Structure (SMILES): N#Cc1c(N2CCCCC2)cc(-c2cccs2)c2c1-c1cccc3cccc-2c13

- emission maximum (in ClCCl): 435 nm
Structure (SMILES): Cc1ccc(-n2c(-c3ccc(N(c4ccc(-c5ccc(N(c6ccc(-c7nc8c9ccccc9c9ccccc9c8n7-c7ccc(C)cc7)cc6)c6ccc(-c7nc8c9ccccc9c9ccccc9c8n7-c7ccc(C)cc7)cc6)cc5)cc4)c4ccc(-c5nc6c7ccccc7c7ccccc7c6n5-c5ccc(C)cc5)cc4)cc3)nc3c4ccccc4c4ccccc4c32)cc1

- emission maximum (in ClC(Cl)Cl): 595 nm
Structure (SMILES): O=Cc1ccc(C#CC(C#Cc2ccc(C=O)s2)=Cc2ccc(C=C(C#Cc3ccc(C=O)s3)C#Cc3ccc(C=O)s3)s2)s1

- emission maximum (in ClCCl): 539 nm
Structure (SMILES): COCCOCCOCCOCC(COCCOCCOCCOC)Oc1cc(/C=C/c2ccc(/C=C(\C#N)c3ccccc3)cc2)c(OC(COCCOCCOCCOC)COCCOCCOCCOC)cc1/C=C/c1ccc(/C=C(\C#N)c2ccccc2)cc1

- emission maximum (in CC#N): 504 nm
- emission maximum (in ClCCl): 635 nm
Structure (SMILES): Cn1c(=O)cc(C(=O)c2ccccc2)c2sc(-c3ccc(N(c4ccccc4)c4ccccc4)cc3)cc21

- emission maximum (in CO): 390 nm
Structure (SMILES): Oc1cccc(-c2nc(-c3ccccc3)c(-c3ccccc3)[nH]2)c1

- emission maximum (in CCO): 661 nm
- emission maximum (in CO): 655 nm
- emission maximum (in CS(C)=O): 663 nm
- emission maximum (in O): 659 nm
Structure (SMILES): CN1/C(=C/C=C(/C=C/C2=[N+](C)c3ccccc3C2(C)C)c2cc(F)cc(F)c2)C(C)(C)c2ccccc21

- emission maximum (in CO): 785 nm and 790 nm
Structure (SMILES): CC1(C)C(/C=C/C2=C(c3ccc(C(=O)O)cc3)C(=C/C=C3/N(CCCCS(=O)(=O)[O-])c4ccc(S(=O)(=O)[O-])cc4C3(C)C)/CCC2)=[N+](CCCCS(=O)(=O)[O-])c2ccc(S(=O)(=O)[O-])cc21

- emission maximum (in CC#N): 769 nm
Structure (SMILES): CC(=O)OC[C@H]1O[C@@H](OCC#Cc2ccc(C3=C4C(C)=CC(/C=C/c5ccc(N(C)C)cc5)=[N+]4[B-](F)(F)n4c(/C=C/c5ccc(N(C)C)cc5)cc(C)c43)cc2)[C@H](OC(C)=O)C(OC(C)=O)[C@@H]1OC(C)=O (stereo not given in full)

- emission maximum (in ClCCl): 581 nm
Structure (SMILES): COc1cccc(C2=C3C=C(/C=C/C(=O)OC(C)(C)C)C=[N+]3[B-](F)(F)n3cccc32)c1

- emission maximum (in ClC(Cl)Cl): 570 nm
Structure (SMILES): F[B-]1(F)n2c(cc(Br)c2Br)C(c2ccccc2)=C2C=C(Br)C(Br)=[N+]21

- emission maximum (in C1CCOC1): 498 nm
Structure (SMILES): Cc1cc(C)c([B-]2(c3c(C)cc(C)cc3C)[O+]=P(c3ccccc3)(c3ccccc3)c3cc(-c4ccc(C(C)(C)C)cc4)sc3-c3sc(-c4ccc(C(C)(C)C)cc4)cc32)c(C)c1

- emission maximum (in C1CCCCC1): 453 nm
- emission maximum (in CC#N): 465 nm
- emission maximum (in CCO): 471 nm
- emission maximum (in ClCCl): 466 nm
Structure (SMILES): O=P1(c2ccccc2)C2=C(c3ccccc31)S(=O)(=O)c1ccccc12 (stereo not given)

- emission maximum (in ClCCl): 406 nm
Structure (SMILES): CCOC(=O)c1c(-c2c(Cl)c3ccccc3oc2=O)nn(-c2ccc(Br)cc2)c1C(=O)OCC

Structure (SMILES): CCCCn1c2c(-c3ccc(N(c4ccccc4)c4ccccc4)cc3)cc(C#N)cc2c2cc(C#N)cc(-c3ccc(N(c4ccccc4)c4ccccc4)cc3)c21
- emission maximum (in C1CCCCC1): 404 nm
- emission maximum (in C1CCOC1): 449 nm
- emission maximum (in CC#N): 476 nm
- emission maximum (in CCCCOCCCC): 419 nm
- emission maximum (in CCN(CC)CC): 415 nm
- emission maximum (in CCOC(C)=O): 443 nm
- emission maximum (in CCOCC): 430 nm
- emission maximum (in CN(C)C=O): 476 nm
- emission maximum (in Cc1ccccc1): 415 nm
- emission maximum (in ClC=C(Cl)Cl): 424 nm
- emission maximum (in ClCCl): 452 nm

Structure (SMILES): N#CC(C#N)=Cc1ccc2nc(C#Cc3ccc(N(c4ccc(C#Cc5nc6ccc(C=C(C#N)C#N)cc6s5)cc4)c4ccc(C#Cc5nc6ccc(C=C(C#N)C#N)cc6s5)cc4)cc3)sc2c1
- emission maximum (in Cc1ccccc1): 512 nm

- emission maximum (in C1CCOC1): 487 nm
- emission maximum (in CC#N): 535 nm
- emission maximum (in CCCCCCC): 433 nm
- emission maximum (in CS(C)=O): 537 nm
- emission maximum (in ClCCl): 543 nm
Structure (SMILES): C(=C\c1cnccn1)/c1ccc(N(c2ccccc2)c2ccccc2)cc1

- emission maximum (in ClCCl): 400 nm
Structure (SMILES): CCOC(=O)c1c(-c2cc3ccccc3oc2=O)nn(-c2ccc(Br)cc2)c1C(=O)OCC

- emission maximum (in ClCCl): 455 nm
Structure (SMILES): COc1cc(OC)cc(-c2ccc(C3=CC(c4ccccc4)=C(c4ccccc4)C3)cc2)c1

Structure (SMILES): CCC1=C(C)C2=Cc3cc(I)c(I)n3[B-](F)(F)[N+]2=C1C
- emission maximum (in C1CCCCC1): 550.5 nm
- emission maximum (in CC(C)=O): 552.5 nm
- emission maximum (in CCO): 555 nm
- emission maximum (in CCOC(C)=O): 551.5 nm
- emission maximum (in CO): 552 nm
- emission maximum (in OCC(F)(F)F): 548 nm

- emission maximum (in ClCCl): 520 nm
Structure (SMILES): CC[C@H](C)COc1ccc(C2=C3C(C)=CC(C)=[N+]3[B-](F)(F)n3c(C)cc(C)c32)cc1

- emission maximum (in C1CCCCC1): 390 nm
- emission maximum (in CO): 400 nm
Structure (SMILES): C/C(=C\c1ccc(C)cc1)c1nc2ccccc2s1

- emission maximum (in CCO): 417 nm
- emission maximum (in ClCCl): 417 nm
Structure (SMILES): c1ccc2c(-c3cncnc3)c3ccccc3c(-c3cncnc3)c2c1
